Legend:
Assay type in all cases: cell-based
[1] = test system: H1 human embryonic stem cells; test: Step-wise differentiation, FACS for CXCR4 after step 1 (Example 16); conditions: 100 ng/ml GDF-8 with compound on first day, compared to activin A and Wnt3a
Protocol: (§1) The assay was initiated by aspirating the culture medium from each well and adding back an aliquot (0.5 ml) of test medium. Test conditions for the first step of differentiation were conducted over a three-day period, feeding daily by aspirating and replacing the medium from each well with fresh test medium. On the first day of assay, 100 ng/ml activin A (PeproTech; Cat #120-14) or 100 ng/ml GDF-8 (R&D Systems, Cat #788-G8) was added to respective assay wells where each growth factor was diluted into RPMI-1640 medium (Invitrogen; Cat #: 22400) with 2% Albumin Bovine Fraction V, Fatty Acid Free (FAF BSA) (Proliant Inc. Cat #: SKU 68700), and 20 ng/ml Wnt3a (R&D Systems; Cat #1324-WN/CF). On the second day of assay, 100 ng/ml activin A or 100 ng/ml GDF-8 was diluted into RPMI-1640 medium supplemented with 2% FAF BSA without Wnt3a. In some test samples using GDF-8, Wnt3a was replaced with a small molecule compound, added only on the first day of definitive endoderm differentiation. These small molecules included Compound 19 (2.5 μM in assay), Compound 202 (2.5 μM in assay), Compound 40 (2.5 μM in assay), or a commercially available GSK3 inhibitor BIO (0.5 μM in assay) (EMD Chemicals, Inc.; Cat #361550). At the conclusion of the first step of differentiation, cells from some wells were harvested for flow cytometry analysis to evaluate levels of CXCR4, a marker of definitive endoderm formation. Additional wells were harvested for RT-PCR analysis to measure other markers of differentiation.
Cells for FACS analysis were blocked in a 1:5 solution of 0.5% human gamma-globulin (Sigma; Cat#G-4386) in PBS (Invitrogen; Cat #14040-133): BD FACS staining buffer—BSA (BD; Cat #554657) for 15 minutes at 4° C. Cells were then stained with antibodies for CD9 PE (BD; Cat #555372), CD99 PE (Caltag; #MHCD9904) and CXCR4 APC(R&D Systems; Cat#FAB 173A) for 30 minutes at 4° C. After a series of washes in BD FACS staining buffer, the cells were stained for viability with 7-AAD (BD; Cat #559925) and run on a BD FACSArray. […]

[2] = test system: H1 human embryonic stem cells; test: Step-wise differentiation, high content analysis of SOX17, cell number, insulin, glucagon (Example 16); conditions: GDF-8 with compound in step 1, relative to activin A and Wnt3a
Protocol: as §1
Step 5 of the differentiation protocol was carried out over seven days in DMEM-high glucose with 0.1% Albumax, 0.5× Insulin-Transferrin-Selenium, and 1 μM Alk 5 inhibitor. […]
Imaging was performed using an IN Cell Analyzer 1000 (GE Healthcare) utilizing the 51008bs dichroic for cells stained with Hoechst 33342 and Alexa Fluor 488. […] Segmentation for the nuclei was determined based on gray-scale levels (baseline range 100-300) and nuclear size. Averages and standard deviations were calculated for each replicate data set. […]

[3] = test system: H1 human embryonic stem cells; test: Definitive endoderm formation with TGF superfamily members, SOX17 and cell number (Example 14); conditions: dose titration with Wnt3a, Compound 34, or both
Protocol: Clusters were centrifuged at low speed to collect a cell pellet and remove residual dispase. […] All human embryonic stem cell lines were maintained at passage numbers less than 50 and routinely evaluated for normal karyotype and absence of mycoplasma.
Cells were washed again three times with PBS and blocked with 4% chicken serum (Invitrogen; Cat #16110082) in PBS for 30 minutes at room temperature. […] Plates were washed once with PBS and left in 100 μl/well PBS for imaging.

[4] = test system: H1 human embryonic stem cells; test: Secondary assay: compound combined with individual growth factors or small molecules, no activin A (Example 5, Table 4); conditions: agent combined with 2.5 μM compound and Wnt3a, no activin A
Protocol: Clusters of H1 human embryonic stem cells were grown on reduced growth factor […]™ (Invitrogen; Cat #356231)-coated tissue culture plastic. Cells were passaged using collagenase (Invitrogen; Cat #Cat #17104-019) treatment and gentle scraping, washed to remove residual enzyme, and plated with even dispersal at a ratio of 1:1 (surface area) on reduced growth factor […]™-coated 96-well black plates (Packard ViewPlates; PerkinElmer; Cat #6005182) using volumes of 100 μl/well. Cells were allowed to attach as clusters and then recover log phase growth over a 1 to 3 day period, feeding daily with MEF conditioned medium supplemented with 8 ng/ml bFGF (R&D Systems; Cat #233-FB). Plates were maintained at 37° C., 5% CO2 in a humidified box throughout the duration of assay.
Other agents tested were purchased as follows: BMP-7 (Sigma; Cat #B1434), LY294002 (Cayman; Cat 70920), PD98059, U0126, U0124 (EMD Biosciences; Cat #453710), muscimol (Tocris; Cat #0289), biuculline (Tocris; Cat #0130), sodium butyrate (Sigma; Cat #B5887). All growth factors were solubilized in PBS with 0.1% BSA (Sigma; Cat #A7888) and stored frozen at −80° C. Small molecules were solubilized in 100% DMSO (Sigma; Cat #D2650) and stored frozen at −80° C. The compounds were available as 5 mM stocks in 96-well plate format, solubilized in 100% DMSO and stored at −80° C. The compounds of the present invention were further diluted to an intermediate concentration of 0.2 mM in 50 mM HEPES (Invitrogen; Cat #15630-080), 20% DMSO and stored at 4° C. All growth factors and inhibitors were prepared in a deep well, 96-well polypropylene plate, diluted to 5× intermediate stocks in DMEM:F12 base medium at the beginning of assay and stored at 4° C.
A secondary screening assay was conducted, testing in triplicate and feeding on alternate days over the four-day assay timeframe. Assays were initiated by aspirating culture medium from each well followed by three washes in PBS to remove residual growth factors and serum. Test volumes of 80 μl per well were added back containing DMEM:F12 base medium (Invitrogen; Cat #11330-032) supplemented with 0.625% FCS (HyClone; Cat #SH30070.03), 25 ng/ml Wnt3a (R&D Systems), and 3.125 μM compound plus 20 μl 5× stock of growth factor or small molecule to yield a final concentration of 0.5% FCS, 20 ng/ml Wnt3a, and 2.5 μM compound. […] Final assay concentrations of small molecules tested were as follows: muscimol (20 μM), PD98059 (1 μM), LY294002 (2.5 μM), 00124 (1 μM), U0126 (1 μM), sodium butyrate (0.5 mM). Positive control wells (100 μl/well) contained the same base medium supplemented with 0.5% FCS, 20 ng/ml Wnt3a and 100 ng/ml activin A. Negative control wells (100 μl/well) contained the same base medium with 0.5% FCS and 20 ng/ml Wnt3a, omitting activin A.
On day 3, wells were aspirated and fed with 80 μl DMEM:F12 base medium supplemented with 2.5% FCS (HyClone) and 3.125 μM cyclic aniline-pyridinotriazine compound plus 20 μl 5× stock of growth factors or small molecules per well to yield a final concentration of 2% FCS and 2.5 μM compound (omitting Wnt3a) and as denoted on day one for all remaining growth factors or small molecules. Positive control wells (100 μl/well) contained the same base medium supplemented with 2% FCS and 100 ng/ml activin A, omitting Wnt3a. Negative control wells (100 μl/well) contained the same base medium with 2% FCS, omitting both activin A and Wnt3a.
At the conclusion of four-days of culture, assay plates were washed twice with PBS, fixed with 4% paraformaldehyde (Alexis Biochemical; Cat #ALX-350-011) at room temperature for 20 minutes, then washed three times with PBS and permeabilized with 0.5% Triton X-100 (Sigma; Cat #T8760-2) for 20 minutes at room temperature. Cells were washed again three times with PBS and blocked with 4% chicken serum (Invitrogen; Cat #16110082) in PBS for 30 minutes at room temperature.

Compound	percentage of CXCR4 positive cells after step 1 [1]	relative cell numbers recovered through differentiation step 5 [2]	cell numbers at the conclusion of assay [3]	induction of SOX17 expression compared to the Wnt3a treatment alone [3]	effect on SOX17 expression [4]
O=C1Nc2cc(Br)ccc2/C1=C1/Nc2ccccc2/C1=N\O [GSK3 inhibitor BIO, reference compound]	equivalent or slightly higher percentage of CXCR4 positive cells	decrease in cell number	–	–	–
BMP-4: member of the BMP family, R&D Systems	–	–	significant effect on cell numbers	weak or negligible	inhibited or had negligible effects on SOX17 expression
